Experimental findings from patent US4251520A, “Glucofuranose derivatives” (priority 1976, dated 1981) are described below.

The nature of data set [1]: Analgesic activity, protection from writhing. The format is in vivo, mouse. The following applies: po; 500 mg/kg p.o. mouse; read-out: Analgesic activity, protection from writhing %. Background: An intraperitoneal irritant provokes the stretching counted in writhing tests.
Protocol: (§1) Pharmacological tests were carried out to evaluate the acute toxicity, anti-inflammatory and capillary permeability action, antipyretic, analgesic and anti-spasmodic in vitro action.
A further data set is described as follows: Antipyretic activity. The format is in vivo, rat. The note with it: for Antipyretic activity (potency in comparison with aspirin = 100): 400 mg/kg p.o. rat; for Antipyretic action (in words): rat, in vivo.
In another data set the test system is edema induced by dextran. In words: Anti-inflammatory activity, dextran-induced edema. The format is in vivo, rat. The note with it: po; 500 mg/kg p.o. rat; read-out: % inhibition of edema induced by dextran.
The subject of data set [2] is edema induced by formalin. In words: Anti-inflammatory activity, formalin-induced edema. The following applies: po; 500 mg/kg p.o. rat; read-out: % inhibition of edema induced by formalin. The format is in vivo, rat.
Protocol: as §1
A short description of another data set: in vivo. The following applies: mouse, in vivo, po.
The nature of data set [3]: Analgesic activity, hot plate test. The format is in vivo, mouse. The following applies: po; 500 mg/kg p.o. mouse; hot plate test; read-out: Analgesic activity, increase of reaction time %.
Protocol: as §1
Data set [4] has as its system edema induced by carrageenan. Nature of the data set: Anti-inflammatory activity, carrageenin-induced oedema. The note with it: po; 500 mg/kg p.o. rat; read-out: % inhibition of edema induced by carrageenan. The format is in vivo, rat. From the text:
Beginning, therefore, with D-glucose, we have prepared 1,2:5,6-di-O-isopropylidene-α-D-glucofuranose (II): [drawing 2] as well as 1,2-O-isopropylidene-α-D-glucofuranose and 1,2-O-isopropylidene-3,5,6-tri-O-benzyl-α-D-glucofuranose (1; Glen W. L., Myers G. S., Grant G. A., J. Chem. Soc., 2568/1951; (2) Meyer A. S., Reichstein T., Helv. Chim. Acta, 29, 139/1946; (3) Huber G., Rossi A., Helv. Chim. Acta, 51, 1185/1968) and have compared these compounds with (I) for anti-inflammatory activity against carrageenin-induced oedema (500 mg/kg, p.o. in rats).
In general terms: The carrageenan paw model is a standard test of acute inflammation.

The test system of a further data set is spasm by histamine. Nature of the data set: Antispasmodic activity in vitro, spasm by histamine.
A further data set relates to capillary permeability. Nature of the data set: Capillary permeability test. The following applies: 500 mg/kg p.o. mouse.
For another data set, the system named is spasm by acetylcholine. Nature of the data set: Antispasmodic activity in vitro, spasm by acetylcholine.

Protocol for Antipyretic activity: as §1
Protocol for capillary permeability: as §1
Protocol for edema induced by dextran: as §1
Protocol for spasm by acetylcholine: as §1
Protocol for spasm by histamine: as §1

Turning to `CC1(C)OCC(C2OC3OC(C)(C)OC3C2OCCN(Cc2ccccc2)Cc2ccccc2)O1` (stereo not shown) [XXI], the inhibition in vivo at 500 mg/kg in data set [1] amounted to 60%; in the data set on edema induced by dextran, 17%; in [2] it was 19%; in [4], 29%. In addition, in “Antipyretic activity”, the “Antipyretic activity (potency in comparison with aspirin = 100)” value was found to be 25%. This compound displayed an LD50 in “in vivo” of over 2000 mg/kg. In [3], the change in vivo at 500 mg/kg worked out at 0%.

As to `CCOC1C(C2COC(C)(C)O2)OC2OC(C)(C)OC21` (stereo not shown) [IV], the inhibition in vivo at 500 mg/kg was determined as 0% in data set [1], 14% in the data set with edema induced by dextran, 33% in data set [2] and 37% in data set [4]. In “Antipyretic activity”, the “Antipyretic activity (potency in comparison with aspirin = 100)” value is 31%. In the data set “in vivo”, the LD50 amounted to 2000 mg/kg. In addition, in data set [3], the change in vivo at 500 mg/kg came to 30%. Also, the “Antispasmodic activity in vitro, ED50, inhib. of spasm by histamine” value with spasm by histamine came to 150 µg/mL. Also, the “Capillary permeability, decrease %” value with capillary permeability came out at 42%. Further, the “Antispasmodic activity in vitro, ED50, inhib. of spasm by acetylcholine” value in the data set on spasm by acetylcholine was over 100 µg/mL.

Turning to `CCCOC1C(C2COC(C)(C)O2)OC2OC(C)(C)OC21` (stereo not shown) [V], the inhibition in vivo at 500 mg/kg in [1] is 20%; in the data set with edema induced by dextran, 0%; in data set [2], 0%; in [4], 28%. Also, the “Antipyretic activity (potency in comparison with aspirin = 100)” value in “Antipyretic activity” was found to be 37%. This compound returned an LD50 in the data set “in vivo” of 1000 mg/kg. Further, in data set [3], the change in vivo at 500 mg/kg was found to be 10%. Moreover, the “Antispasmodic activity in vitro, ED50, inhib. of spasm by histamine” value with spasm by histamine was over 100 µg/mL. Besides, the “Capillary permeability, decrease %” value in the data set on capillary permeability is 53%. In addition, the “Antispasmodic activity in vitro, ED50, inhib. of spasm by acetylcholine” value in the data set on spasm by acetylcholine is over 100 µg/mL.

As for `CC1(C)OCC(C2OC3OC(C)(C)OC3C2OCC(=O)O)O1` [XIII, 3-Carboxymethyl-1,2:5,6-di-O-isopropylidene-α-D-glucofuranose], the inhibition in vivo at 500 mg/kg came to 0% in [1], 4% in the data set with edema induced by dextran, 18% in data set [2] and 10% in data set [4]. Further, the “Antipyretic activity (potency in comparison with aspirin = 100)” value in “Antipyretic activity” worked out at 5%. For the same compound, the LD50 in the data set “in vivo” is over 4000 mg/kg. The change in vivo at 500 mg/kg in [3] worked out at 0%. For the same compound, the “Antispasmodic activity in vitro, ED50, inhib. of spasm by histamine” value with spasm by histamine is over 100 µg/mL. In addition, the “Capillary permeability, decrease %” value in the data set with capillary permeability came out at 14%. In addition, the “Antispasmodic activity in vitro, ED50, inhib. of spasm by acetylcholine” value in the data set with spasm by acetylcholine was over 100 µg/mL.

For the compound `CC1(C)OCC(C2OC3OC(C)(C)OC3C2OCCN2CCCCC2)O1` (stereo not shown) [XIX], in the data set “Antipyretic activity”, the “Antipyretic activity (potency in comparison with aspirin = 100)” value is given as 55%. The “Antipyretic action (in words)” value in “Antipyretic activity” is “retained”. Further, the inhibition in vivo at 500 mg/kg with edema induced by dextran is 56%; in data set [2] it was 28%; in data set [4], 64%. The compound further had an LD50 in “in vivo” of over 1000 mg/kg. Also, the “Capillary permeability, decrease %” value in the data set with capillary permeability was 17%.

For `CCCCOC1C(C2COC(C)(C)O2)OC2OC(C)(C)OC21` (stereo not shown) [VI], the inhibition in vivo at 500 mg/kg in data set [1] stood at 0%; in the data set on edema induced by dextran, 13%; in [2] it was 24%; in data set [4], 33%. In addition, the “Antipyretic activity (potency in comparison with aspirin = 100)” value in “Antipyretic activity” was determined as 51%. Besides, the “Antipyretic action (in words)” value in the data set “Antipyretic activity” is on record as “retained”. This compound came in with an LD50 in “in vivo” of 3000 mg/kg. The change in vivo at 500 mg/kg in data set [3] was found to be 40%. For the same compound, the “Antispasmodic activity in vitro, ED50, inhib. of spasm by histamine” value in the data set on spasm by histamine is over 100 µg/mL. For the same compound, in the data set on capillary permeability, the “Capillary permeability, decrease %” value is given as 57%. In addition, the “Antispasmodic activity in vitro, ED50, inhib. of spasm by acetylcholine” value in the data set with spasm by acetylcholine is over 100 µg/mL.

In general, LD50 refers to the dose expected to kill half of the subjects tested. A high value points to lower toxicity.
